# Source: patent US20260335397A1, “TREATMENT OF GEOGRAPHIC ATROPHY” (Apellis Pharmaceuticals, Inc., priority 2022, published 2026)
# Experiments:
# Assay type in all cases: in vivo, human
# [1] = test system: geographic atrophy (GA) secondary to age-related macular degeneration (AMD); test: Post-hoc analysis of BCVA and VFQ-25 by lesion distance from foveal center, OAKS and DERBY; settings: lesions ≥250 μm from foveal center, 24 months
# Procedure: This Example describes a post-hoc analysis of results from the OAKS and DERBY studies described in Example 1. Functional data by lesion distance from foveal center were assessed over 24 months.
# In the patient subgroup having lesions ≥250 μm away from the foveal center, pegcetacoplan slowed vision loss and improved quality of life in patients. […] This subgroup included patients in the mITT sample with non-missing baseline measurements of RPE central 3 mm occupancy (C30) in regions 1-5 and lesion distance from fovea center. Mean changes were calculated among patients with BCVA measurements at each timepoint and thus samples varied across outcomes shown with no imputation for missing data. Adjusted differences from bootstrapped inverse probability weighted regressions controlling for baseline C30 in regions 1-5, study and fellow eye GA characteristics, study eye visual acuity, and patient characteristics.
# This subgroup included patients in the mITT sample with non-missing baseline measurements of RPE central 3 mm occupancy (C3O) in regions 1-5 and lesion distance from fovea center. Mean changes were calculated among patients with BCVA measurements at each timepoint and thus samples varied across outcomes shown with no imputation for missing data. […]
# [2] = test system: geographic atrophy (GA) secondary to age-related macular degeneration (AMD); test: Post-hoc analysis of time to foveal light insensitivity, 4 central points of MAIA grid, OAKS study
# Procedure: This Example describes a post-hoc analysis of results from the OAKS study described in Example 1 that was performed in order to assess the effect of pegcetacoplan monthly (PM) or every other month (PEOM) vs sham treatment in delaying occurrence of foveal insensitivity measured by the 4 most centrally located stimulus points of the MAcular Integrity Assessment (MAIA) grid. Absolute scotomatous points of −1 dB were considered present when a reaction was not evoked by the brightest possible light stimulus.
# Light insensitivity was defined as absence of response to −1 dB at the stimulus point. For the time-to-event analysis, a foveal light insensitivity event was defined as the first light insensitivity (−1 dB) occurring at all 4 central stimuli. Events were measured at the exact date of a patient visit and depicted via Kaplan-Meier plots. A Cox proportional hazards model was applied factoring treatment, choroidal neovascularisation in the fellow eye, baseline GA lesion area, and baseline number of central 4 scotomatous points (categorical). Hazard ratios (HRs) of PM and PEOM were estimated.
# [3] = test system: geographic atrophy (GA) secondary to age-related macular degeneration (AMD); test: Post-hoc SD-OCT analysis of PR and RPE loss, OAKS and DERBY studies; settings: 12 months; for RPE loss, difference EM vs EOM / PR loss, difference EM vs EOM: monthly vs every other month; for PR loss, difference EM vs. Sham Pooled / RPE loss, difference EM vs. Sham Pooled: monthly
# From the text: (§1) LS means estimated from MMRM analysis. The mITT population was used for the analysis, defined as all randomized patients who received at least 1 injection of pegcetacoplan or sham and had baseline and at least one post-baseline value of GA lesion area in the study eye. FOV=field of view; LS=least square; M=month; mITT=modified intent-to-treat; MMRM=mixed-effects model for repeated measures; PEOM=pegcetacoplan every other month; PM=pegcetacoplan monthly; PR=photoreceptor; RPE=retinal pigment epithelium; SE=standard error.
# as §1, with “FOV-field” for “FOV=field”
# Spectral-domain optical coherence tomography (OCT) allows for cross sectional visualization of the neurosensory retina, including the photoreceptor (PR) layer, as well as the retinal pigment epithelium (RPE) and other retinal structures. […] A post-hoc analysis that assessed the ability of pegcetacoplan treatment to reduce PR and RPE loss in patients with GA was performed using SD-OCT images acquired from a subgroup of patients in the OAKS and DERBY studies, namely those for whom Spectralis SD-OCT images were available. Automated, deep learning based segmentation of RPE loss and PR thickness on SD-OCT volumes acquired at baseline and months 2, 4, 6, 8, 10, and 12 was performed according to previously published methods. The difference in the change from baseline of RPE loss area and of PR loss area (determined based on PR thickness measurements) was compared among the monthly, every other month, and pooled sham treatment arms using LS Mean MMRM modeling. […] The magnitude of the treatment effects at 12 months, as determined using LS mean MMRM modeling, are summarized below.
substance,measurement,setting,value
"Poly(oxy-1,2-ethanediyl), α-hydro-ω-hydroxy-, 15,15′-diester with N-acetyl-L-isoleucyl-L-cysteinyl-L-valyl-1-methyl-L-tryptophyl-L-glutaminyl-L-α-aspartyl-L-tryptophylglycyl-L-alanyl-L-histidyl-L-arginyl-L-cysteinyl-L-threonyl-2-[2-(2-aminoethoxy)ethoxy]acetyl-N^6-carboxy-L-lysinamide cyclic (2->12)-(disulfide) [pegcetacoplan]","quality of life assessed by VFQ-25, better relative to sham",[1],over 4 points
same,"BCVA change from baseline, relative to sham","[1]; monthly and every other month combined, baseline BCVA 73 (sham 75)",less of a BCVA change from baseline at 24 months
same,"HR, occurrence of foveal light insensitivity vs sham","[2]; PEOM, 95% CI: 0.45, 0.92, p=0.0164",0.64
same,"Conversion of all 4 central points to scotoma in the study eye, patients","[2]; PEOM, n=152, 24 months",59 patients
same,"Conversion of all 4 central points to scotoma in the study eye, percent of patients","[2]; PEOM, n=152, 24 months",38.8%
same,onset of foveal light insensitivity / loss of foveal light sensitivity,"[2]; PM and PEOM, twenty-four-month data",Meaningful delays in loss of foveal light sensitivity
same,"HR, occurrence of foveal light insensitivity vs sham","[2]; PM, 95% CI: 0.46, 0.96, p=0.0282",0.66
same,"Conversion of all 4 central points to scotoma in the study eye, patients","[2]; PM, n=155, 24 months",54 patients
same,"Conversion of all 4 central points to scotoma in the study eye, percent of patients","[2]; PM, n=155, 24 months",34.8%
same,PR loss and RPE loss compared with sham,"[3]; DERBY and OAKS, monthly and every other month",statistically significant reduction in PR loss and RPE loss at 12 months
same,"PR loss, difference every other month vs. Sham pooled","[3]; DERBY, every other month, p<0.0001",−61.0%
same,"RPE loss, difference every other month vs. Sham pooled","[3]; DERBY, every other month, p<0.0065",−20.4%
same,"RPE loss, difference EM vs EOM","[3]; DERBY, p=0.0103",−19.6%
same,"PR loss, difference EM vs EOM","[3]; DERBY, p=0.0785",−42%
same,"PR loss, difference EM vs. Sham Pooled","[3]; DERBY, p<0.0001",−77.4%
same,"RPE loss, difference EM vs. Sham Pooled","[3]; DERBY, p<0.0001",−36.0%
same,"PR Loss, difference EOM vs. Sham pooled","[3]; OAKS, every other month, p<0.0001",−47.7%
same,"RPE loss, difference every other month vs. Sham pooled","[3]; OAKS, every other month, p=0.0342",−14.8%
same,"PR loss, difference EM vs EOM","[3]; OAKS, p=0.0049",−51.3%
same,"RPE loss, difference EM vs EOM","[3]; OAKS, p=0.5282",−5.7%
same,"PR loss, difference EM vs. Sham Pooled","[3]; OAKS, p<0.0001",−74.5%
same,"RPE loss, difference EM vs. Sham Pooled","[3]; OAKS, p=0.0070",−19.7%
